Laboratory results as given in patent US20250313558A1, “IMIDAZOLIDINE DERIVATIVE OR PHARMACEUTICALLY ACCEPTABLE SALT THEREOF, AND USE THEREOF” (CELLUS INC., priority 2023, published 2025).
Values belong to the compound of their own block, whether it stands above or below them.

Key:
Assay type in all cases: biochemical
ADAM10 = molecular target: T1, ADAM10 (Homo sapiens, UniProt O14672); assay: FRET assay, inhibition of ADAM10
T1 sequence (O14672 214-748): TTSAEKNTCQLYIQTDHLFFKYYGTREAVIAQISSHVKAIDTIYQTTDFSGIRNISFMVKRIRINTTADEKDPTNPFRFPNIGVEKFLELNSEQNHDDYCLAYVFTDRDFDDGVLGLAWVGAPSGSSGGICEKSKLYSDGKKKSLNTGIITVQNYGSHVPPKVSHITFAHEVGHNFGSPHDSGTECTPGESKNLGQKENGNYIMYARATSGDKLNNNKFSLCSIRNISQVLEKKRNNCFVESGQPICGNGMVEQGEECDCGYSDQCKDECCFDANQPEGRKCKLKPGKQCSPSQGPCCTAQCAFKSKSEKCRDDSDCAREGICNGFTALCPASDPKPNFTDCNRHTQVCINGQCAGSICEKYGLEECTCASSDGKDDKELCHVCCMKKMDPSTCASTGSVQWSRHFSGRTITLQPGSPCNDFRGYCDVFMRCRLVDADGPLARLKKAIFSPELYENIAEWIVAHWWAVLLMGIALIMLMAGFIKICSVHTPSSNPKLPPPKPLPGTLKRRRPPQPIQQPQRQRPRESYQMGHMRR
Description: (§1) FRET assay is a method to detect and quantify the fluorescent signal generated when ADAM/ADAMTS proteins […] specific peptides.

ADAM17 = ADAM17 (Homo sapiens, UniProt P78536); assay: FRET assay, inhibition of ADAM17
ADAM17, sequence (P78536 215-824, species assumed): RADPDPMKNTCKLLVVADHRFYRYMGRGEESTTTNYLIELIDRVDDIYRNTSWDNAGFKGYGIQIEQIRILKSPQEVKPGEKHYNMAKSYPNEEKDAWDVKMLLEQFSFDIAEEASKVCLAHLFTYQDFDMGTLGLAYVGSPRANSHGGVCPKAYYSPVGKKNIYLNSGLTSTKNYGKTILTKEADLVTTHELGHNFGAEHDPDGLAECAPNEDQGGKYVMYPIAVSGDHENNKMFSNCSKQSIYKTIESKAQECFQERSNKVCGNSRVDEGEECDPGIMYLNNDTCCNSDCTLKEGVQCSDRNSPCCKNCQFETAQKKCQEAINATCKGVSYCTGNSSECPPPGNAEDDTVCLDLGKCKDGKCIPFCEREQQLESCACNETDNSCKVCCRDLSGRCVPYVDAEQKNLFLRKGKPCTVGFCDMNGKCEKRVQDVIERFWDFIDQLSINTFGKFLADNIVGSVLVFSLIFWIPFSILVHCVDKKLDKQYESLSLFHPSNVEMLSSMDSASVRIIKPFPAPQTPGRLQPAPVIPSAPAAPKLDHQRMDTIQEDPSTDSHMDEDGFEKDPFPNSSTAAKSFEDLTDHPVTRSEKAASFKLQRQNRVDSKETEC
Description: as §1

ADAMTS5 = molecular target: T2, ADAMTS5 (Homo sapiens, UniProt Q9UNA0); assay: FRET assay, inhibition of ADAMTS5
T2 sequence (Q9UNA0 262-930): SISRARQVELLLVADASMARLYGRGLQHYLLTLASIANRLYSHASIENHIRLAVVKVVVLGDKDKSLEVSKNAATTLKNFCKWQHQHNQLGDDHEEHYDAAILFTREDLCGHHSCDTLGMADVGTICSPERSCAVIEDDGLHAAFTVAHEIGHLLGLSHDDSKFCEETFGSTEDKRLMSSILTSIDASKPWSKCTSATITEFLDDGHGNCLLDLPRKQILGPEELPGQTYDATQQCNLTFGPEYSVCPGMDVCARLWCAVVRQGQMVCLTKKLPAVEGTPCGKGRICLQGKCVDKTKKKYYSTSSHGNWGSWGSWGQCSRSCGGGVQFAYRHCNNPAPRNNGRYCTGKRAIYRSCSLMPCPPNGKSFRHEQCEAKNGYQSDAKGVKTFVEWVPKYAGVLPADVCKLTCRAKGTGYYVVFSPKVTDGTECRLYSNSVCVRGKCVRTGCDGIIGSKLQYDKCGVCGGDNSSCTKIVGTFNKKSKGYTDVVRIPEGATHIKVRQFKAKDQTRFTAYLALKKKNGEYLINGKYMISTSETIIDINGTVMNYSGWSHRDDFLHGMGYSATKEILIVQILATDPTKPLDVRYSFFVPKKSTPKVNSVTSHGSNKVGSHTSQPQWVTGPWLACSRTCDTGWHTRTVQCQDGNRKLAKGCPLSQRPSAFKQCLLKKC
Procedure: The control compound GLPG-1972 and four effective compounds (CLS-S210 (Formula 2), CLS-S282 (Formula 3), CLS-S213 (Formula 4), and CLS-S214 (Formula 5)) were treated with ADAMTS5, ADAMTS4, ADAM10, and ADAM17 proteins to perform Fluorescence Resonance Energy Transfer (FRET) evaluation. FRET assay is a method to detect and quantify the fluorescent signal generated when ADAM/ADAMTS proteins […] specific peptides.

SMILES: CNC(=O)[C@@H](NC(=O)[C@H](CCCc1ccccc1)[C@H](C)N(O)C=O)C(C)(C)C [GI254023X]
inhibition ability against ADAM10 (in words) (ADAM10): inhibit ADAM10 and ADAM17 at low concentrations

SMILES: CC(C)C[C@H](CC(=O)NO)C(=O)N[C@@H](Cc1ccc2ccccc2c1)C(=O)N[C@@H](C)C(N)=O [TAPI-0]
inhibition ability against ADAM17 (in words) (ADAM17): inhibit ADAM10 and ADAM17 at low concentrations

IC50 (ADAMTS5): 65 nM
SMILES: C[C@H]1CN(C(=O)CC[C@@]2(C3CC3)NC(=O)NC2=O)CCN1c1cc(F)cc(F)c1 [GLPG-1972]
